Source: ChEMBL document CHEMBL1201862, “PubChem BioAssay data set” (2004)
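In this assay, cells in 96-well plates receive the compound at five concentrations for 48 hours. Endpoints are linearly interpolated between the surrounding concentrations. The concentration for 50% growth inhibition is given as GI50.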 Active and inactive are the calls of the source. No stated cut-off is given here; in the data, active = GI50 up to about 1.1 µM and inactive = higher.

Assays:
Assay in all cases: DTP human tumour cell line panel, 48 h
786-0 = test system: 786-0
A549 = test system: A549
ACHN = test system: ACHN
CAKI-1 = test system: CAKI-1
CCRF-CEM = test system: CCRF-CEM
DU-145 = test system: DU-145
EKVX = test system: EKVX
HCC 2998 = test system: HCC 2998
HCT-116 = test system: HCT-116
HCT-15 = test system: HCT-15
HL-60 = test system: HL-60
HOP-62 = test system: HOP-62
HOP-92 = test system: HOP-92
HT-29 = test system: HT-29
Hs-578T = test system: Hs-578T
IGROV-1 = test system: IGROV-1
K562 = test system: K562
KM12 = test system: KM12
LOX IMVI = test system: LOX IMVI
M14 = test system: M14
MDA-MB-231 = test system: MDA-MB-231
MDA-MB-435 = test system: MDA-MB-435
MDA-N = test system: MDA-N
MOLT-4 = test system: MOLT-4
Malme-3M = test system: Malme-3M
NCI-H226 = test system: NCI-H226
NCI-H23 = test system: NCI-H23
NCI-H460 = test system: NCI-H460
NCI/ADR-RES = test system: NCI/ADR-RES
OVCAR-3 = test system: OVCAR-3
OVCAR-4 = test system: OVCAR-4
OVCAR-5 = test system: OVCAR-5
OVCAR-8 = test system: OVCAR-8
RPMI-8226 = test system: RPMI-8226
RXF 393 = test system: RXF 393
SF-268 = test system: SF-268
SK-MEL-28 = test system: SK-MEL-28
SK-MEL-2 = test system: SK-MEL-2
SK-MEL-5 = test system: SK-MEL-5
SK-OV-3 = test system: SK-OV-3
SN12C = test system: SN12C
SNB-19 = test system: SNB-19
SNB-75 = test system: SNB-75
SR = test system: SR
SW-620 = test system: SW-620
T47D = test system: T47D
U-251 = test system: U-251
UACC-257 = test system: UACC-257
UACC-62 = test system: UACC-62
UO-31 = test system: UO-31
A498 = test system: A498
COLO 205 = test system: COLO 205
MCF7 = test system: MCF7
NCI-H522 = test system: NCI-H522
PC-3 = test system: PC-3
SF-295 = test system: SF-295
SF-539 = test system: SF-539
TK-10 = test system: TK-10

## NC(=S)NNC(=S)NC(=O)c1ccco1
786-0
  GI50: > 10 µM (inactive)
A549
  GI50: > 10 µM (inactive)
ACHN
  GI50: > 10 µM (inactive)
CAKI-1
  GI50: > 10 µM (inactive)
CCRF-CEM
  GI50: > 10 µM (inactive)
DU-145
  GI50: > 10 µM (inactive)
EKVX
  GI50: > 10 µM (inactive)
HCC 2998
  GI50: > 10 µM (inactive)
HCT-116
  GI50: > 10 µM (inactive)
HCT-15
  GI50: > 10 µM
HL-60
  GI50: > 10 µM (inactive)
HOP-62
  GI50: > 10 µM (inactive)
HOP-92
  GI50: > 10 µM (inactive)
HT-29
  GI50: > 10 µM (inactive)
Hs-578T
  GI50: > 10 µM (inactive)
IGROV-1
  GI50: > 10 µM (inactive)
K562
  GI50: > 10 µM (inactive)
KM12
  GI50: > 10 µM (inactive)
LOX IMVI
  GI50: > 10 µM (inactive)
M14
  GI50: > 10 µM (inactive)
MDA-MB-231
  GI50: > 10 µM (inactive)
MDA-MB-435
  GI50: > 10 µM (inactive)
MDA-N
  GI50: > 10 µM (inactive)
MOLT-4
  GI50: > 10 µM (inactive)
Malme-3M
  GI50: > 10 µM (inactive)
NCI-H226
  GI50: > 10 µM (inactive)
NCI-H23
  GI50: > 10 µM (inactive)
NCI-H460
  GI50: > 10 µM (inactive)
NCI/ADR-RES
  GI50: > 10 µM (inactive)
OVCAR-3
  GI50: > 10 µM (inactive)
OVCAR-4
  GI50: > 10 µM (inactive)
OVCAR-5
  GI50: > 10 µM (inactive)
OVCAR-8
  GI50: > 10 µM (inactive)
RPMI-8226
  GI50: > 10 µM (inactive)
RXF 393
  GI50: > 10 µM (inactive)
SF-268
  GI50: > 10 µM (inactive)
SK-MEL-28
  GI50: > 10 µM (inactive)
SK-MEL-2
  GI50: > 10 µM (inactive)
SK-MEL-5
  GI50: > 10 µM (inactive)
SK-OV-3
  GI50: > 10 µM (inactive)
SN12C
  GI50: > 10 µM (inactive)
SNB-19
  GI50: > 10 µM (inactive)
SNB-75
  GI50: > 10 µM (inactive)
SR
  GI50: > 10 µM (inactive)
SW-620
  GI50: > 10 µM (inactive)
T47D
  GI50: > 10 µM (inactive)
U-251
  GI50: > 10 µM (inactive)
UACC-257
  GI50: > 10 µM (inactive)
UACC-62
  GI50: > 10 µM (inactive)
UO-31
  GI50: > 10 µM (inactive)

## COc1c(-c2ccc(F)cc2)oc2cc(O)cc(O)c2c1=O
786-0
  GI50: 32.8 µM (inactive)
A498
  GI50: 47.6 µM (inactive)
A549
  GI50: 31 µM (inactive)
ACHN
  GI50: 30.7 µM (inactive)
CAKI-1
  GI50: 24.3 µM (inactive)
CCRF-CEM
  GI50: 29.4 µM (inactive)
COLO 205
  GI50: 20.9 µM (inactive)
DU-145
  GI50: 29 µM (inactive)
EKVX
  GI50: 14.6 µM (inactive)
HCC 2998
  GI50: 14.5 µM (inactive)
HCT-116
  GI50: 30.5 µM (inactive)
HCT-15
  GI50: 18.5 µM
HL-60
  GI50: 30.9 µM (inactive)
HOP-62
  GI50: 18.5 µM (inactive)
HOP-92
  GI50: 35.6 µM (inactive)
HT-29
  GI50: 22.7 µM (inactive)
Hs-578T
  GI50: 35.2 µM (inactive)
IGROV-1
  GI50: 21.4 µM (inactive)
K562
  GI50: 38.9 µM (inactive)
KM12
  GI50: 30.5 µM (inactive)
LOX IMVI
  GI50: 21.8 µM (inactive)
M14
  GI50: 34.8 µM (inactive)
MCF7
  GI50: 33.7 µM (inactive)
MDA-MB-231
  GI50: 20 µM (inactive)
MDA-MB-435
  GI50: 32.1 µM (inactive)
MDA-N
  GI50: 26.2 µM (inactive)
MOLT-4
  GI50: 24.2 µM (inactive)
Malme-3M
  GI50: 26.6 µM (inactive)
NCI-H23
  GI50: 29.6 µM (inactive)
NCI-H460
  GI50: 21.7 µM (inactive)
NCI-H522
  GI50: 20.5 µM (inactive)
NCI/ADR-RES
  GI50: 25.9 µM (inactive)
OVCAR-3
  GI50: 34.1 µM (inactive)
OVCAR-5
  GI50: 25.5 µM (inactive)
OVCAR-8
  GI50: 28.7 µM (inactive)
PC-3
  GI50: 34 µM (inactive)
RPMI-8226
  GI50: 30.4 µM (inactive)
SF-268
  GI50: 40 µM (inactive)
SF-295
  GI50: 26.1 µM (inactive)
SF-539
  GI50: 19.8 µM (inactive)
SK-MEL-28
  GI50: 46.9 µM (inactive)
SK-MEL-2
  GI50: 23.3 µM (inactive)
SK-MEL-5
  GI50: 16.5 µM (inactive)
SK-OV-3
  GI50: 30.5 µM (inactive)
SN12C
  GI50: 30.3 µM (inactive)
SNB-19
  GI50: 23.9 µM (inactive)
SNB-75
  GI50: 19.2 µM (inactive)
SR
  GI50: 28.2 µM (inactive)
SW-620
  GI50: 43 µM (inactive)
T47D
  GI50: 18.8 µM (inactive)
U-251
  GI50: 30.5 µM (inactive)
UO-31
  GI50: 16.6 µM (inactive)

## COc1cccc(/C=C/c2ccc(S(N)(=O)=O)cc2)c1
786-0
  GI50: 17.8 µM (inactive)
COLO 205
  GI50: 11.7 µM (inactive)
DU-145
  GI50: 26.1 µM (inactive)
EKVX
  GI50: 11.8 µM (inactive)
HCC 2998
  GI50: 10.5 µM (inactive)
HCT-116
  GI50: 7.36 µM (inactive)
HOP-62
  GI50: 24 µM (inactive)
M14
  GI50: 36.1 µM (inactive)
MCF7
  GI50: 8.07 µM (inactive)
MDA-MB-231
  GI50: 25.1 µM (inactive)
MDA-N
  GI50: 17 µM (inactive)
Malme-3M
  GI50: 23.2 µM (inactive)
NCI-H460
  GI50: 10.3 µM (inactive)
NCI/ADR-RES
  GI50: 23.1 µM (inactive)
OVCAR-3
  GI50: 5.31 µM (inactive)
OVCAR-5
  GI50: 59.4 µM (inactive)
PC-3
  GI50: 22.7 µM (inactive)
RXF 393
  GI50: 5.5 µM (inactive)
SF-295
  GI50: 6.75 µM (inactive)
SK-MEL-28
  GI50: 44 µM (inactive)
SK-MEL-2
  GI50: 5.9 µM (inactive)
SK-MEL-5
  GI50: 17.1 µM (inactive)
SK-OV-3
  GI50: 30.4 µM (inactive)
SN12C
  GI50: 18.2 µM (inactive)
SNB-19
  GI50: 46.6 µM (inactive)
SNB-75
  GI50: 17.4 µM (inactive)
T47D
  GI50: 4.94 µM (inactive)
TK-10
  GI50: 12.5 µM (inactive)
UACC-257
  GI50: 16.4 µM (inactive)
UO-31
  GI50: 18.6 µM (inactive)
